In patent US20180214560A1, “HPMA-DRUG CONJUGATES FOR THE TREATMENT OF ACUTE MYELOID LEUKEMIA” (University of Utah Research Foundation, priority 2015, published 2018):
pIC50: −log10 of the molar value. Where two headings read alike, the source gives them in different places.

How the values were obtained:
HL-60 cells = test: Cell cycle analysis by flow cytometry (propidium iodide); type: cell-based, human; conditions: 48 h; CYT=1 μM; DAU=0.04 μM; GDC=1 μM; JSK=0.5 μM
Method: HL-60 cells (2×10^5 cells/mL) were seeded in 6-well plates, and treated with drug alone or different combinations of two drugs at the following concentrations for each: […] JSK=0.5 μM. Following 48-h treatment, cells were harvested, fixed and stained with propidium iodide (PI) at room temperature in the dark. Cell cycle analysis was performed by flow cytometry using BD LSR Fortessa machine (BD Biosciences, San Jose, Calif.). Cell percentages in the different phases of cell cycle were analyzed using FlowJo software (Tree star, Ashland, Oreg.).

[1] = 37 °C, after 48 h, 100 μg CYT/mL
Method: The stability of free and HPMA copolymer-bound cytarabine in human plasma was evaluated. […] At selected time points, 5 μL tetrahydrouridine (THU, 1 mg/mL in DI H2O, used as inhibitor of cytidine deaminase to prevent cytarabine from deamination) was added to a vial containing 100 μL sample. For free drug, 1 mL of mixture of acetonitrile/methanol (9:1) was added to precipitate proteins. The vial was vortex-mixed and then centrifuged at 13,000 g for 10 min at 4° C. The supernatant was carefully transferred into a 2 mL vial that was placed into a 40° C. water bath and bubbled with nitrogen. After organic solvents were removed, the resulting dry residue was dissolved in 0.5 mL DI H2O with 0.1% TFA. The sample was filtered and then 10 μL was injected to an analytical C18 column (Zorbax 300SB, 5 μm, 4.6×250 mm) for HPLC analysis. The amount of intact CYT was calculated based on the area under the curve (AUC) recorded at 268 nm wavelength and calibration curve from a series of standard CYT concentrations. To determine the CYT stability in conjugate, 1-amino-2-propanol (10 μL) was added to the sample prior to plasma precipitation in order to cleave CYT from polymer backbone. Then the sample was examined following the same procedure as described above.

HL-60 human AML cells = test: In vitro cytotoxicity (CCK-8 assay); type: cell-based
Method: The cytotoxicity of free drugs (CYT, DAU, GDC, and JSK) and two polymeric conjugates (P-CYT, P-GDC) against HL-60 was measured using the CCK-8 assay (Dojindo, Kumamoto, Japan). The cells were seeded in 96-well plates at a density of 20,000 cells/well in RPMI-1640 media containing 2 mM L-glutamine and 10% FBS. Then, 50 μL media containing the drugs were added. The cells were incubated with free drugs (CYT, DAU, GDC, and JSK) or the polymeric conjugates (P-CYT, P-GDC) at a range of drug concentrations. After 48 h incubation, the number of viable cells was estimated using the CCK-8 kit according to manufacturer's protocol. After the cells were incubated with the reagent at 37° C. for 4 h, the absorbance was measured using a microplate reader at 450 nm (630 nm as reference). Viability of treated cells was calculated as a percentage of the viability of untreated controls.

[2] = tested on: DOX resistant (A2780/AD) human ovarian carcinoma xenografts; conditions: resistant tumors (A2780/AD); cited from earlier work
[3] = humans; P-DOX in DOX equivalent; cited from earlier work
[4] = cited from earlier work
[5] = Homo sapiens, HL-60 cells, 48 h incubation, read-out: IC50

| SMILES | Change of G0/G1 phase population (HL-60 cells) | Change of S phase population (HL-60 cells) | pIC50 (HL-60 human AML cells; [5]) | Change of G2/M phase population (HL-60 cells) | also measured |
| --- | --- | --- | --- | --- | --- |
| Nc1ccn([C@@H]2O[C@H](CO)[C@@H](O)[C@@H]2O)c(=O)n1 [CYT, cytarabine] | decrease in the G0/G1 population | arrested the cells in S phase | 5.98 |  | CYT still present in human plasma [1]: all free drug disappeared |
| COc1cccc2c1C(=O)c1c(O)c3c(c(O)c1C2=O)C[C@@](O)(C(C)=O)C[C@@H]3O[C@H]1C[C@H](N)[C@H](O)[C@H](C)O1 [DAU, daunorubicin] | decrease in the G0/G1 population |  |  | accumulate in the G2/M phase | pIC50 (HL-60 human AML cells; Homo sapiens, HL-60, 48 h): 7.40 |
| COc1cccc2c1C(=O)c1c(O)c3c(c(O)c1C2=O)C[C@@](O)(C(=O)CO)C[C@@H]3O[C@H]1C[C@H](N)[C@H](O)[C@H](C)O1 [DOX, doxorubicin] |  |  |  |  | Decrease of tumor size [2]: effective only in sensitive tumors; Maximum tolerated dose (MTD) [3]: 60-80 mg/m2 |
| Cc1c(CN2CCN(C(=O)[C@H](C)O)CC2)sc2c(N3CCOCC3)nc(-c3cnc(N)nc3)nc12 [GDC, GDC-0980] | slight increase in the G0/G1 phase population |  | 6.12 |  | Solubility of free GDC [4]: poor solubility |
| CCOC(=O)N1CCN(/[N+]([O-])=N/Oc2ccc([N+](=O)[O-])cc2[N+](=O)[O-])CC1 [JSK, JS-K] | decrease in the G0/G1 population | did not make significant changes in those fractions |  | did not make significant changes in those fractions | pIC50 (HL-60 human AML cells; HL-60 cells, 48 h incubation, read-out: IC50): 6.36 |
